Data: patent US6531628B1, “Substantive water-soluble 2-hydroxy sulfobetaines of cinnamidoalkylamines” (Galaxy Surfactants Ltd., priority 2001, dated 2003)
Entries after “also recorded” stand apart in the source; their conditions may differ.

What was measured:
[1] = Compatibility with anionic surfactant in formulation; format: physicochemical; settings: sodium lauryl ether sulphate based transparent shampoo / transparent bathing bar; N,N-dimethyl ammonium)-2-hydroxy propane-1-sulph
Description: The major ingredients were mixed with heating to 50° C. until a uniform homogeneous mixture was formed. The resulting mixture was then cooled to room temperature with continuous stirring. The required chelating agent, colour, perfume were added. The viscosity was adjusted to 2500 cps with sodium chloride.
All ingredients were heated together under stirring to 70° C. till the reaction mass became homogenous and transparent. The reaction mass was cooled to 40° C. and the required amounts of chelating agents, perfume and colour were added. The molten mass was cast in moulds of desired shape to yield transparent bathing bar.

[2] = Molar extinction coefficient (UV absorption); format: physicochemical; settings: at λmax 306 nm in water

## COc1ccc(C=CC(=O)NCCC[N+](C)(C)CC(O)CS(=O)(=O)[O-])cc1 (centres unmarked) [Example I, 3-(N-p-Methoxy Cinnamidopropyl, N,N-Dimethyl Ammonium)-2-hydroxy Propane-1-sulphonate]
[1]
  compatibility with anionic surfactant: completely compatible; also recorded: total compatibility
[2]
  molar extinction coefficient, ∈: 24,000
